From the CheMixHub viscosity set

Assay: xn = mol fraction of the nth substance listed

CCCCOCCO + CCc1ccccc1
viscosity [mPa·s], 101 kPa
Settings | 298.15 K | 308.15 K
x1 = 0.0546 | 0.678 | 0.568
x1 = 0.1505 | 0.769 | 0.643
x1 = 0.2513 | 0.877 | 0.732
x1 = 0.3501 | 1.003 | 0.835
x1 = 0.4528 | 1.161 | 0.961
x1 = 0.4982 | 1.24 | 1.025
x1 = 0.55 | 1.339 | 1.103
x1 = 0.6497 | 1.56 | 1.277
x1 = 0.7511 | 1.831 | 1.487
x1 = 0.8507 | 2.156 | 1.736
x1 = 0.9614 | 2.601 | 2.071

CCCC[n+]1ccn(C)c1.N#C[C-](C#N)C#N + CCCCn1cc[n+](C)c1.O=S(=O)([N-]S(=O)(=O)C(F)(F)F)C(F)(F)F
Settings | viscosity [mPa·s]
298.15 K, 100 kPa, x2 = 0.751 | 43.15

CNC=O + CC(=O)c1ccccc1
viscosity [mPa·s], 101 kPa
Settings | x1 = 0.0867 | x1 = 0.176 | x1 = 0.268 | x1 = 0.3629 | x1 = 0.4607 | x1 = 0.5617 | x1 = 0.6659 | x1 = 0.7736 | x1 = 0.8849
303.15 K | 1.522 | 1.532 | 1.541 | 1.549 | 1.556 | 1.564 | 1.571 | 1.578 | 1.583
308.15 K | 1.423 | 1.43 | 1.436 | 1.442 | 1.447 | 1.452 | 1.456 | 1.46 | 1.462
313.15 K | 1.279 | 1.289 | 1.299 | 1.307 | 1.316 | 1.325 | 1.333 | 1.34 | 1.347
318.15 K | 1.133 | 1.148 | 1.162 | 1.176 | 1.19 | 1.204 | 1.218 | 1.231 | 1.243

CCCCOCCO + NCCO
viscosity [mPa·s]
Settings | 293.15 K | 298.15 K | 303.15 K | 308.15 K | 313.15 K | 318.15 K | 323.15 K
101 kPa, x2 = 0.177 | 4.615 | 3.961 | 3.431 | 2.994 | 2.629 | 2.325 | 2.07
101 kPa, x2 = 0.453 | 8.081 | 6.718 | 5.65 | 4.799 | 4.115 | 3.559 | 3.101
101 kPa, x2 = 0.659 | 12.25 | 9.951 | 8.19 | 6.823 | 5.747 | 4.888 | 4.197
101 kPa, x2 = 0.819 | 16.81 | 13.39 | 10.84 | 8.898 | 7.395 | 6.212 | 5.271
101 kPa, x2 = 0.946 | 21.65 | 17.02 | 13.6 | 11.03 | 9.061 | 7.538 | 6.342
101.3 kPa, x2 = 0.457 | 8.08 | 6.72 | 5.65 | 4.8 | 4.11 | 3.56 | 3.1
101.3 kPa, x2 = 0.664 | 12.25 | 9.95 | 8.19 | 6.82 | 5.75 | 4.89 | 4.2

COC(=O)c1ccccc1 + CCCCCCCCCCCC
101 kPa
Settings | viscosity [mPa·s]
298.15 K, x2 = 0.082 | 1.662
298.15 K, x2 = 0.1173 | 1.604
298.15 K, x2 = 0.144 | 1.569
298.15 K, x2 = 0.1894 | 1.521
298.15 K, x2 = 0.2155 | 1.489
298.15 K, x2 = 0.2495 | 1.456
298.15 K, x2 = 0.2908 | 1.424
298.15 K, x2 = 0.3295 | 1.395
298.15 K, x2 = 0.3708 | 1.367
298.15 K, x2 = 0.4625 | 1.325
298.15 K, x2 = 0.5803 | 1.295
298.15 K, x2 = 0.6336 | 1.286
298.15 K, x2 = 0.6963 | 1.278
298.15 K, x2 = 0.7551 | 1.279
298.15 K, x2 = 0.837 | 1.291
298.15 K, x2 = 0.9197 | 1.314
308.15 K, x2 = 0.0354 | 1.452
308.15 K, x2 = 0.0681 | 1.412
308.15 K, x2 = 0.0984 | 1.376
308.15 K, x2 = 0.126 | 1.347
308.15 K, x2 = 0.1623 | 1.311
308.15 K, x2 = 0.1958 | 1.282
308.15 K, x2 = 0.2384 | 1.248
308.15 K, x2 = 0.2693 | 1.226
308.15 K, x2 = 0.3062 | 1.203
308.15 K, x2 = 0.3476 | 1.182
308.15 K, x2 = 0.3895 | 1.164
308.15 K, x2 = 0.4361 | 1.146
308.15 K, x2 = 0.485 | 1.131
308.15 K, x2 = 0.5382 | 1.12
308.15 K, x2 = 0.5886 | 1.112
308.15 K, x2 = 0.65 | 1.108
308.15 K, x2 = 0.7204 | 1.107
308.15 K, x2 = 0.7849 | 1.11
308.15 K, x2 = 0.8845 | 1.124
318.15 K, x2 = 0.0445 | 1.219
318.15 K, x2 = 0.0506 | 1.213
318.15 K, x2 = 0.0779 | 1.183
318.15 K, x2 = 0.1097 | 1.152
318.15 K, x2 = 0.1388 | 1.126
318.15 K, x2 = 0.1737 | 1.097
318.15 K, x2 = 0.2067 | 1.072
318.15 K, x2 = 0.2449 | 1.048
318.15 K, x2 = 0.2814 | 1.025
318.15 K, x2 = 0.3256 | 1.001
318.15 K, x2 = 0.3648 | 0.983
318.15 K, x2 = 0.4153 | 0.964
318.15 K, x2 = 0.4635 | 0.95
318.15 K, x2 = 0.5194 | 0.938
318.15 K, x2 = 0.5726 | 0.931
318.15 K, x2 = 0.6372 | 0.926
318.15 K, x2 = 0.7 | 0.924
318.15 K, x2 = 0.7739 | 0.929
318.15 K, x2 = 0.8468 | 0.938

CCCCCCBr + C1COCCO1
303.15 K, 101.3 kPa
Settings | viscosity [mPa·s]
x2 = 0.1105 | 0.8848
x2 = 0.3021 | 0.8777
x2 = 0.4972 | 0.9007
x2 = 0.698 | 0.947
x2 = 0.8997 | 1.03
